Reference: paper PMC6277434, “Discovery of a potent HMG-CoA reductase degrader that eliminates statin-induced reductase accumulation and lowers cholesterol” (Nature Communications, 2018)
Numbering of substitutions follows the chain as printed.

Legend:
HMGCR (TM1-8)-GFP = biological target: T1, HMGCR (TM1-8)-GFP (Cricetulus griseus, UniProt P00347)
T1 sequence (P00347 1-346): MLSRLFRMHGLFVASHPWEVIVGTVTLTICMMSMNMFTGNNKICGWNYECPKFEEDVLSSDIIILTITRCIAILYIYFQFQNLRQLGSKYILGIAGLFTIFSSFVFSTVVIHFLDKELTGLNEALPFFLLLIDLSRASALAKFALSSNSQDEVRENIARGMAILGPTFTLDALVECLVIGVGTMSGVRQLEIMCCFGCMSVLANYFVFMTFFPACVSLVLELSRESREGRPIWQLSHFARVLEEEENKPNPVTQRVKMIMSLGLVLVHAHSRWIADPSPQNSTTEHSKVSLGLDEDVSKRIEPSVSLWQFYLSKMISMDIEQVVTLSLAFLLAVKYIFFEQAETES

WT HMGCR = biological target: T2, WT HMGCR (Cricetulus griseus, UniProt P00347); test: Immunoblotting of overexpressed wild type HMGCR in Huh7 cells; format: cell-based; details: 1 µM lovastatin
T2 construct: expressed in transfected cells; host or cells: Huh7
T2 sequence (P00347 1-887): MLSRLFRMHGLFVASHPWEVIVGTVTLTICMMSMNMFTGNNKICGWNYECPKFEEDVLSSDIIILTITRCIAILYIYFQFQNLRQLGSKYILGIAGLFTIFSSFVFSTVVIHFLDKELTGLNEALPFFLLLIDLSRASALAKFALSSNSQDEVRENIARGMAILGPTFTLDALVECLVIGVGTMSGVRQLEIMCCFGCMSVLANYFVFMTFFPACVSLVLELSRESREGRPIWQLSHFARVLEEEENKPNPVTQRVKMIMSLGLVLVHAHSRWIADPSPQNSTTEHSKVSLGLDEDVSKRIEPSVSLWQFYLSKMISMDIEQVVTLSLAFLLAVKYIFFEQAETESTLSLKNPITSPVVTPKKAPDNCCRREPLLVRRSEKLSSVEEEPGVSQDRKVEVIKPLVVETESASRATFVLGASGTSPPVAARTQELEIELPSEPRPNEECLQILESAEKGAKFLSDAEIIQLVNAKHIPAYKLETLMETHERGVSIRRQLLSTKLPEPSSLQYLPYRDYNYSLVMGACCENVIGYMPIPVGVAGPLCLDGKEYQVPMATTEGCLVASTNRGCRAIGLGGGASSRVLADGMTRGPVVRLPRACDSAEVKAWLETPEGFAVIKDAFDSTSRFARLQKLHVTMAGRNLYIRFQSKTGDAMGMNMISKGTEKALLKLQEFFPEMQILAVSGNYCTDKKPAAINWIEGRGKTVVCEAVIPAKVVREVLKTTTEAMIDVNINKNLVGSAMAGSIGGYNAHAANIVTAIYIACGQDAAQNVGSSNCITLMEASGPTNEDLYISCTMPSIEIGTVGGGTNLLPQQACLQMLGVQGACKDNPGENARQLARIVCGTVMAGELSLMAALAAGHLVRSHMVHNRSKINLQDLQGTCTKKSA
Procedure: (§1) Cells were harvested and homogenized in the RIPA buffer (50 mM Tris-HCl, pH 8.0, 150 mM NaCl, 2 mM MgCl2, 1.5% NP-40, 0.1% SDS, and 0.5% sodium deoxycholate) supplemented with protease cocktail inhibitor, 10 μM MG-132, 10 μg ml^−1 leupeptin and 1 mM phenylmethylsulfonyl fluoride. The protein concentrations of lysates were determined using BCA method (Beyotime). Samples were mixed with the membrane protein solubilization buffer (62.5 mM Tris-HCl, pH 6.8, 15% SDS, 8 M urea, 10% glycerol, and 100 mM DTT) plus the 4× loading buffer (150 mM Tris-HCl, pH 6.8, 12% SDS, 30% glycerol, 6% 2-mercaptoethanol, and 0.02% bromophenol blue) and incubated for 30 min at 37 °C. Proteins were resolved by SDS-PAGE and transferred to nitrocellulose membranes (GE Healthcare). Immnoblots were blocked with 5% non-fat milk in TBS containing 0.075% Tween-20 (TBST) and probed with indicated antibodies overnight at 4 °C. After washing in TBST for five times, blots were incubated with HRP-conjugated secondary antibodies for 2 h at room temperature. Immunoreactivity was developed with Clarity Western ECL chemiluminescent substrates (170–5061, Bio-Rad). Western blot images were captured by Amersham Imager 600 (GE Healthcare), and integrated optical intensities of each band were quantified by Image-Pro Plus 6 software (Media Cybernetics). […]
(§2) RT-qPCR. Quantifications of the relative mRNA levels of indicated SREBP target […]

K89R/K248R HMGCR = biological target: T3, K89R/K248R HMGCR (Cricetulus griseus, UniProt P00347, K248R/K89R); test: Immunoblotting of overexpressed K89R/K248R HMGCR in Huh7 cells; format: cell-based; parameters: expressed in transfected cells; host or cells: Huh7 (A8); details: lovastatin
T3 sequence (P00347 1-887 K89R/K248R): T2 sequence (P00347 1-887) with K89R, K248R
Procedure: as §1, §2

Row | SMILES | DC50 (HMGCR (TM1-8)-GFP) [µM] | elevation of overexpressed WT HMGCR protein (WT HMGCR) [fold] | effect on ubiquitination-resistant K89R/K248R HMGCR protein level (K89R/K248R HMGCR)
1 | C=CCC(O)(CC=C)CCCC(C)C1CCC2C3C(O)C=C4C(C)(C)C(O)CCC4(C)C3CCC12C (stereo not drawn) [Cmpd 81] | 0.41 |  | 
2 | CC[C@H](C)C(=O)O[C@H]1C[C@@H](C)C=C2C=C[C@H](C)[C@H](CC[C@@H]3C[C@@H](O)CC(=O)O3)[C@H]21 [Lovastatin, lovastatin] |  | 6 | did not induce the protein level further increase
